As usually defined, the IC50 is the concentration at which inhibition is half-maximal.

The assay concerns the target T1, human TRH-DE (Homo sapiens, UniProt Q9UKU6).
T1 construct: expressed in transfected cells; host or cells: Expi 293 cells (transient expression), membrane fraction
T1 sequence (Q9UKU6 1-1069): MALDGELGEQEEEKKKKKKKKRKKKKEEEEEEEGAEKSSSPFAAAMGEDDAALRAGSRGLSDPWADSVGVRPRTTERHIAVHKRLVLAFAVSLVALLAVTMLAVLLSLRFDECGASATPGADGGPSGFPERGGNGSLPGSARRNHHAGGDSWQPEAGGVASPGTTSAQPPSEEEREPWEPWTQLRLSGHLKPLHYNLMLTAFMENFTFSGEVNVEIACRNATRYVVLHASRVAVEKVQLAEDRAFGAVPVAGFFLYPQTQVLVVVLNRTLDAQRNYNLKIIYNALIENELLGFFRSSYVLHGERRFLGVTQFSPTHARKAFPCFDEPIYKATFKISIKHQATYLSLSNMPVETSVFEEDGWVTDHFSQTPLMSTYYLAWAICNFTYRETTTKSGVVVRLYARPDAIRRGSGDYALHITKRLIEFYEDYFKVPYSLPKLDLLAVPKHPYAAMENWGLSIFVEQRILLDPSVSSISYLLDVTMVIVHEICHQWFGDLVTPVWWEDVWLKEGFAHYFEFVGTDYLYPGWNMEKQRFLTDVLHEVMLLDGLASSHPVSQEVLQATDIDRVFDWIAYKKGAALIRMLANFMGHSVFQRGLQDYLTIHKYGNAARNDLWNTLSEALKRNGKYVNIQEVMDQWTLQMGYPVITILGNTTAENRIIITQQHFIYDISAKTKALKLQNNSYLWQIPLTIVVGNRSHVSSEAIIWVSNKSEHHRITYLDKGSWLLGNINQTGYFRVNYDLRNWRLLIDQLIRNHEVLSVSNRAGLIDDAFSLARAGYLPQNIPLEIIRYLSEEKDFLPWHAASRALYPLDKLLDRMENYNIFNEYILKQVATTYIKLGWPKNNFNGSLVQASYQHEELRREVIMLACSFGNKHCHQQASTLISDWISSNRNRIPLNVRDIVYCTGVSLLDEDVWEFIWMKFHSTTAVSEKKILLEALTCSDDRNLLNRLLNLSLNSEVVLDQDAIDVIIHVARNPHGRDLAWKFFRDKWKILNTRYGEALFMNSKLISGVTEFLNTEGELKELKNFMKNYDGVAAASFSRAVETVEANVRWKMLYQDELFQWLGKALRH
As to the kind of experiment: TRH-DE inhibition test (RapidFire MS measurement of product Cyclo (His-Pro)). Conditions: membrane fraction of Expi 293 cells expressing human TRH-DE; 10 μM TRH substrate; room temperature, 2 hours; 16-point concentration test. The class given is biochemical. On the procedure:
The compounds described in “1. […] The enzyme inhibitory activity of each of the compounds was evaluated by measuring the amount of the product Cyclo (His-Pro) of the enzyme reaction using a RapidFire RF 365 HTMS system (manufactured by Agilent Technologies, Inc.) connected to a triple quadrupole mass spectrometer (API 4000, manufactured by SCIEX). A membrane fraction prepared from Expi 293 cells transiently expressing human TRH-DE was used as an enzyme. The membrane fraction was suspended in 4 μg/ml of a reaction buffer (50 mM sodium phosphate (pH 7.4), 25 mM NaCl, 0.01% Triton […], and 200 μM bacitracin) and mixed with the test compound at each concentration. 10 μM […]), which was a substrate, was added, and the mixture was reacted at room temperature for 2 hours. The reaction was stopped in the same amount of a solution of acetonitrile:methanol (1:1) containing 1 μM of the stable isotope Cyclo ([…]) as an internal standard, and the supernatant was collected after centrifugation. In the RapidFire RF 365 HTMS system, a portion of the supernatant was aspirated, loaded onto a Graphic Carbon column (manufactured by Agilent Technologies, Inc.) with a buffer A (water, 0.09% formic acid, 0.01% trifluoroacetic acid) and washed with ultrapure water. Next, washing was performed with acetonitrile. The contents in the column were eluted with a buffer B (80% acetonitrile, 0.09% formic acid, 0.01% trifluoroacetic acid) and injected into a mass spectrometer for analysis. […] The ESI voltage was set to 5,500 V and the temperature was set to 650° C. For the calculation of the inhibition rate, a Ratio value corrected by dividing the product amount by the internal standard amount was used. The inhibition rate (%) was calculated by % Inhibition={1-(Ratio value of sample-Ratio value of blank)/(Ratio value of control-Ratio value of blank)}×100. The IC50 value was calculated from the concentration reactivity test at 16 points.
Regarding `CC1COc2ncccc2C(=O)N1C1CC2(C1)CN(S(=O)(=O)c1ccccc1C(F)(F)F)C2` (racemic) [Example 78], the IC50 was 2330 nM. Compound `CC1COc2ncccc2C(=O)N1C1CC2(C1)CN(S(=O)(=O)c1ccc(F)cc1)C2` (racemic) [Example 80] registered an IC50 of 295 nM. On to `CC1COc2ncccc2C(=O)N1C1CC2(C1)CN(S(=O)(=O)c1cccs1)C2` (racemic) [Example 81], for which the midpoint of inhibition, the IC50, lay at 670 nM.

As for `CC1CCc2cc(C(F)(F)F)cnc2C(=O)N1C1CC2(C1)CN(S(=O)(=O)c1ccccc1F)C2` (racemic) [Example 86], the IC50 worked out at 60 nM. `CC1CCc2ncccc2C(=O)N1C1CC2(C1)CN(S(=O)(=O)c1ccccc1F)C2` (racemic) [Example 87] gave an IC50 of 49 nM.

As for `CC1CCc2ncc(F)cc2C(=O)N1C1CC2(C1)CN(S(=O)(=O)c1ccccc1F)C2` (racemic) [Example 88], the midpoint of inhibition, the IC50, lay at 147 nM. In turn, `CC1CCc2ncc(C(F)(F)F)cc2C(=O)N1C1CC2(C1)CN(S(=O)(=O)c1ccccc1F)C2` (racemic) [Example 89] had an IC50 of 286 nM.

Turning to `CC1CCc2nc(C(F)(F)F)sc2C(=O)N1C1CC2(C1)CN(S(=O)(=O)c1ccccc1F)C2` (racemic) [Example 92], it took 12 nM to reach half-maximal inhibition (IC50).

As to `CC1CCc2nc(C3CC3)sc2C(=O)N1C1CC2(C1)CN(S(=O)(=O)c1ccccc1F)C2` (racemic) [Example 93], the IC50 stood at 4 nM.

For the compound `CC1CCc2nc(C3(F)CC3)sc2C(=O)N1C1CC2(C1)CN(S(=O)(=O)c1ccccc1F)C2` (racemic) [Example 94], the IC50 turned out to be 4 nM.

With `CC1CCc2sc(C(F)(F)F)nc2C(=O)N1C1CC2(C1)CN(S(=O)(=O)c1ccccc1F)C2` (racemic) [Example 98], the IC50 was 21 nM.

In turn, `CC1CCc2nc(C3CC3)oc2C(=O)N1C1CC2(C1)CN(S(=O)(=O)c1ccccc1F)C2` (racemic) [Example 102] yielded an IC50 of 6 nM. For the compound `CC1c2cc(C(F)(F)F)cnc2C(=O)N(C2CC3(C2)CN(S(=O)(=O)c2ccccc2F)C3)C1C` (racemic) [Example 106], the IC50 amounted to 14 nM. Regarding `CC1CCC2CC2C(=O)N1C1CC2(C1)CN(S(=O)(=O)c1ccccc1F)C2` (racemic) [Example 107], it took 18 nM to reach half-maximal inhibition (IC50). `CC1C=Cc2cc(C(F)(F)F)cnc2C(=O)N1C1CC2(C1)CN(S(=O)(=O)c1ccccc1F)C2` (racemic) [Example 112] returned an IC50 of 32 nM. Under `CC1C=Cc2ncccc2C(=O)N1C1CC2(C1)CN(S(=O)(=O)c1ccccc1F)C2` (racemic) [Example 113] stands 26 nM; under `CC1C=Cc2ncc(F)cc2C(=O)N1C1CC2(C1)CN(S(=O)(=O)c1ccccc1F)C2` (racemic) [Example 114], 61 nM; under `CC1C=Cc2ncc(C(F)(F)F)cc2C(=O)N1C1CC2(C1)CN(S(=O)(=O)c1ccccc1F)C2` (racemic) [Example 115], 83 nM. For the compound `CC1C=Cc2nc(C(F)(F)F)sc2C(=O)N1C1CC2(C1)CN(S(=O)(=O)c1ccccc1F)C2` (racemic) [Example 118], the IC50 was found to be 25 nM. The result for `CC1C=Cc2nc(C3CC3)sc2C(=O)N1C1CC2(C1)CN(S(=O)(=O)c1ccccc1F)C2` (racemic) [Example 119] reads 13 nM; that for `CC1C=Cc2nc(C3(F)CC3)sc2C(=O)N1C1CC2(C1)CN(S(=O)(=O)c1ccccc1F)C2` (racemic) [Example 120], 11 nM. Consider `CC1C=Cc2nc(C3CC3)oc2C(=O)N1C1CC2(C1)CN(S(=O)(=O)c1ccccc1F)C2` (racemic) [Example 129], for which the IC50 was 21 nM. `CC1C=Cc2c(noc2C2CC2)C(=O)N1C1CC2(C1)CN(S(=O)(=O)c1ccccc1F)C2` (racemic) [Example 131] displayed an IC50 of 32 nM. Consider `Cc1nc2c(s1)C(=O)N(C1CC3(C1)CN(S(=O)(=O)c1ccccc1F)C3)C(C)CO2` (racemic) [Example 174], for which half-maximal inhibition (IC50) required 19 nM. `CCc1nc2c(s1)C(=O)N(C1CC3(C1)CN(S(=O)(=O)c1ccccc1F)C3)C(C)CO2` (racemic) [Example 177] had an IC50 of 18 nM.

The record behind these values is US20260132127A1, “NOVEL SPIRO COMPOUND” (MITSUBISHI TANABE PHARMA CORPORATION, priority 2021, published 2026).
